Data reported in EPA's ToxRefDB 2.

Key:
[1] = system: mouse; conditions: Subchronic oral toxicity in rodents, b6c3f1, Feed, dose end: 13 week, group: systemic
[2] = system: mouse; conditions: Carcinogenicity, b6c3f1, Oral, Feed, dose end: 103 week, group: systemic
[3] = system: rat; conditions: Subchronic oral toxicity in rodents, fischer, Feed, dose end: 13 week, group: systemic
[4] = system: rat; conditions: Carcinogenicity; fischer; Oral; Feed; dose end: 103 week; group: systemic; systemic / in life observation / body weight / body weight
[5] = system: mouse; conditions: Sub-acute repeat dose toxicity, b6c3f1, Oral, Feed, dose end: 14 day, group: systemic
[6] = system: rat; conditions: Sub-acute repeat dose toxicity, fischer, Oral, Feed, dose end: 14 day, group: systemic
[7] = system: rat; conditions: Subchronic oral toxicity in rodents, other, Feed, dose end: 90 day, group: systemic
[8] = system: mouse; conditions: Carcinogenicity, cd1, Oral, Feed, dose end: 18 month, group: systemic
[9] = system: rat; conditions: Multigenerational reproductive toxicity study, other, Oral, Feed, dose end: 2 generation
[10] = system: dog; conditions: Subchronic oral toxicity in nonrodent, beagle, Feed, dose end: 90 day, group: systemic
[11] = system: dog; conditions: Chronic toxicity; beagle; Oral; Feed; dose end: 1 year; group: systemic; systemic / organ weight / kidney / absolute + systemic / pathology gross / liver / enlarged + systemic / pathology microscopic / epididymis…
[12] = system: rat; conditions: Combined chronic toxicity/carcinogenicity, sprague dawley, Oral, Feed, dose end: 2 year, group: systemic
[13] = system: mouse; conditions: Carcinogenicity, other, Oral, Feed, dose end: 26 month, group: systemic
[14] = system: rat; conditions: Combined chronic toxicity/carcinogenicity; wistar; Oral; Feed; dose end: 24 month; group: systemic; systemic / in life observation / body weight / body weight + systemic / in life observation / body weight / body weight gain + systemic / …
[15] = system: rat; conditions: Prenatal developmental toxicity study, wistar, Dermal, Topical, dose end: 15 GD
[16] = system: dog; conditions: Chronic toxicity; beagle; Oral; Feed; dose end: 52 week; group: systemic; systemic / clinical chemistry / albumin / albumin + systemic / clinical chemistry / triglycerides / triglycerides + systemic / pathology …
[17] = system: mouse; conditions: Carcinogenicity, b6c3f1, Oral, Feed, dose end: 24 month, group: systemic
[18] = system: rat; conditions: Prenatal developmental toxicity study, wistar, Oral, Gavage/Intubation, dose end: 15 GD
[19] = system: dog; conditions: Subchronic oral toxicity in nonrodent, beagle, Feed, dose end: 13 week, group: systemic, systemic / organ weight / liver / absolute + systemic / organ weight / liver / relative to body weight + systemic / pathology microscopic / …
[20] = system: rat; conditions: Subchronic oral toxicity in rodents, wistar, Feed, dose end: 90 day, group: systemic
[21] = system: rabbit; conditions: Prenatal developmental toxicity study, himalayan, Oral, Gavage/Intubation, dose end: 18 GD
[22] = systemic / in life observation / body weight / body weight gain
[23] = systemic / in life observation / body weight / body weight gain + systemic / in life observation / body weight / body weight
[24] = systemic / in life observation / body weight / body weight
[25] = systemic / in life observation / body weight / body weight + systemic / pathology microscopic / liver / adenoma/carcinoma combined + …
[26] = systemic / in life observation / body weight / body weight + systemic / in life observation / food consumption / food consumption + systemic…
[27] = systemic / in life observation / body weight / body weight gain + systemic / in life observation / food consumption / food consumption + …
[28] = systemic / clinical chemistry / alanine aminotransferase (alt/sgpt) / alanine aminotransferase (alt/sgpt) + systemic / clinical chemistry / …
[29] = systemic / in life observation / body weight / body weight + systemic / pathology microscopic / stomach / cyst + systemic / pathology …
[30] = group: offspring, systemic / in life observation / body weight / offspring (pup) weight + systemic / in life observation / clinical signs / reduced body size
[31] = group: parental, systemic / in life observation / body weight / body weight gain
[32] = group: reproductive, reproductive / reproductive performance / gestational length / gestational length
[33] = systemic / urinalysis / specific gravity/osmolality / specific gravity/osmolality + systemic / urinalysis / volume / volume
[34] = systemic / in life observation / body weight / body weight gain + systemic / organ weight / liver / relative to body weight + systemic / …
[35] = systemic / pathology gross / skin / desiccation + systemic / pathology microscopic / ear / hyperkeratosis + systemic / pathology microscopic…
[36] = group: developmental, developmental / developmental malformation / bone / incomplete ossification + developmental / developmental malformation / bone / unossified
[37] = group: maternal, systemic / in life observation / clinical signs / erythema + systemic / pathology gross / skin / [other]
[38] = group: maternal, systemic / in life observation / clinical signs / erythema + systemic / pathology gross / skin / [other] + systemic / pathology gross / skin…
[39] = systemic / pathology microscopic / adrenal gland / hyperplasia + systemic / clinical chemistry / bilirubin / total bilirubin
[40] = group: developmental, developmental / developmental malformation / bone / incomplete ossification + developmental / developmental malformation / bone / unossified…
[41] = group: maternal, systemic / in life observation / body weight / body weight + systemic / in life observation / body weight / body weight gain + systemic / in…
[42] = systemic / clinical chemistry / cytochrome p450, nos / cytochrome p450, nos + systemic / pathology microscopic / esophagus / hyperkeratosis…
[43] = group: developmental, developmental / developmental malformation / bone / [other] + developmental / developmental malformation / bone / absent + developmental / …
[44] = group: maternal, systemic / in life observation / body weight / body weight gain + systemic / in life observation / clinical signs / anal prolapse + systemic…

`CCCCC(CC)COC(=O)CCCCC(=O)OCC(CC)CCCC` (centres undefined) [Di(2-ethylhexyl) adipate] showed an LEL [1, 22] of 465 mg/kg/day, an LOAEL [1, 23] greater than 3750 mg/kg/day and an NEL [1, 23] of 240 mg/kg/day. For the same compound, the NOAEL [1, 23] was no less than 3750 mg/kg/day, the LOAEL [2, 24] was 1800 mg/kg/day and the NOAEL [2, 24] was less than 1800 mg/kg/day. For the same compound, the LEL [2, 25] was 1800 mg/kg/day, the NEL [2, 25] was less than 1800 mg/kg/day and the LEL [3, 22] was 625 mg/kg/day. The LOAEL [3, 22] was 625 mg/kg/day, the NEL [3, 23] was 315 mg/kg/day and the NOAEL [3, 23] was 315 mg/kg/day. The LEL [4] was 1250 mg/kg/day, the LOAEL [4] was 1250 mg/kg/day and the NEL [4] was 600 mg/kg/day. The NOAEL [4] was 600 mg/kg/day, the LEL [5, 24] was 3750 mg/kg/day and the LOAEL [5, 24] was 7500 mg/kg/day. It also gave an NEL [5, 26] of 1880 mg/kg/day, an NOAEL [5, 26] of 3750 mg/kg/day and an LEL [6, 22] of 1250 mg/kg/day. For the same compound, the LOAEL [6, 22] was 2500 mg/kg/day, the NEL [6, 27] was 625 mg/kg/day and the NOAEL [6, 27] was 1250 mg/kg/day.

In the case of `CCS(=O)(=O)c1cccnc1S(=O)(=O)NC(=O)Nc1nc(OC)cc(OC)n1` [Rimsulfuron], the LEL [7, 28] is reported as 3.35 mg/kg/day, the NEL [7, 28] is reported as less than 3.35 mg/kg/day and the NOAEL [7, 28] is reported as 102 mg/kg/day. The LOAEL [7, 22] was 495 mg/kg/day, the LOAEL [8, 29] was 1130 mg/kg/day and the NEL [8, 29] was 3.47 mg/kg/day. For the same compound, the NOAEL [8, 29] was 351 mg/kg/day, the LEL ([8]; systemic / pathology microscopic / testes / degeneration) was 35.5 mg/kg/day and the LEL [9, 30] was 1320 mg/kg/day. The LOAEL [9, 30] was 1320 mg/kg/day, the NEL [9, 30] was 264 mg/kg/day and the NOAEL [9, 30] was 264 mg/kg/day. It also gave an LEL [9, 31] of 830 mg/kg/day, an LOAEL [9, 31] of 830 mg/kg/day and an NEL [9, 31] of 165 mg/kg/day. It also gave an NOAEL [9, 31] of 165 mg/kg/day, an LEL [9, 32] of 1020 mg/kg/day and an LOAEL [9, 32] greater than 1020 mg/kg/day. It also gave an NEL [9, 32] of 204 mg/kg/day, an NOAEL [9, 32] of no less than 1020 mg/kg/day and an LEL [10, 33] of 6.25 mg/kg/day. For the same compound, the LOAEL [10, 33] was 125 mg/kg/day, the NEL [10, 33] was less than 6.25 mg/kg/day and the NOAEL ([10]; systemic / urinalysis / specific gravity/osmolality / specific gravity/osmolality + systemic / urinalysis / volume / volume + systemic / …) was 6.25 mg/kg/day. The LEL [11] was 81.8 mg/kg/day, the LOAEL [11] was 81.8 mg/kg/day and the NEL [11] was 1.6 mg/kg/day. For the same compound, the NOAEL [11] was 1.6 mg/kg/day, the LEL ([12]; systemic / clinical chemistry / alkaline phosphatase (alp/alk) / alkaline phosphatase (alp/alk)) was 11.8 mg/kg/day and the LOAEL ([12]; systemic / in life observation / body weight / body weight gain + systemic / organ weight / liver / relative to body weight) was 121 mg/kg/day. The NEL [12, 34] was 1 mg/kg/day and the NOAEL [12, 34] was 11.8 mg/kg/day.

In the case of `CCCN(CC)CC1COC2(CCC(C(C)(C)C)CC2)O1` (centres undefined) [Spiroxamine], the LOAEL [13, 35] is reported as 59.3 mg/kg/day, the NEL [13, 35] is reported as 4.5 mg/kg/day and the NOAEL [13, 35] is reported as 36.7 mg/kg/day. It also gave an LEL ([13]; systemic / pathology microscopic / esophagus / acanthosis + systemic / pathology microscopic / esophagus / hyperkeratosis + systemic / …) of 36.7 mg/kg/day, an LEL [14] of 32.8 mg/kg/day and an LOAEL [14] of 32.8 mg/kg/day. For the same compound, the NEL [14] was 4.22 mg/kg/day, the NOAEL [14] was 4.22 mg/kg/day and the LEL [15, 36] was 80 mg/kg/day. For the same compound, the LOAEL [15, 36] was 80 mg/kg/day, the NEL [15, 36] was 20 mg/kg/day and the NOAEL [15, 36] was 20 mg/kg/day. The LOAEL [15, 37] was 5 mg/kg/day, the NOAEL [15, 37] was less than 5 mg/kg/day and the LEL [15, 38] was 5 mg/kg/day. It also gave an NEL [15, 38] of less than 5 mg/kg/day, an LEL [16] of 25.8 mg/kg/day and an LOAEL [16] of 25.8 mg/kg/day. The NEL [16] was 2.48 mg/kg/day, the NOAEL [16] was 2.48 mg/kg/day and the LOAEL ([17]; systemic / pathology microscopic / adrenal gland / hyperplasia) was 150 mg/kg/day. For the same compound, the LEL [17, 39] was 41 mg/kg/day, the NEL [17, 39] was less than 41 mg/kg/day and the NOAEL ([17]; systemic / pathology microscopic / adrenal gland / hyperplasia + systemic / pathology microscopic / adrenal gland / adenoma + systemic / …) was 41 mg/kg/day. It also gave an LOAEL ([18]; group: developmental, developmental / developmental malformation / bone / [other] + developmental / developmental malformation / mouth / jaw / cleft palate + …) of 100 mg/kg/day, an LEL [18, 40] of 10 mg/kg/day and an NEL [18, 40] of less than 10 mg/kg/day. It also gave an NOAEL [18, 40] of 30 mg/kg/day, an LEL [18, 41] of 100 mg/kg/day and an LOAEL [18, 41] of 100 mg/kg/day. It also gave an NEL [18, 41] of 30 mg/kg/day, an NOAEL [18, 41] of 30 mg/kg/day and an LEL [19] of 20 mg/kg/day. It also gave an LOAEL [19] of 20 mg/kg/day, an NEL [19] of 0.66 mg/kg/day and an NOAEL [19] of 0.66 mg/kg/day. It also gave an LEL [20, 42] of 9.3 mg/kg/day, an NEL [20, 42] of 1.9 mg/kg/day and an NOAEL [20, 42] of 9.3 mg/kg/day. The LOAEL ([20]; systemic / pathology microscopic / esophagus / hyperkeratosis + systemic / pathology microscopic / esophagus / hyperplasia + systemic / …) was 54.9 mg/kg/day, the LEL [21, 43] was 80 mg/kg/day and the LOAEL [21, 43] was 80 mg/kg/day. The NEL [21, 43] was 20 mg/kg/day, the NOAEL [21, 43] was 20 mg/kg/day and the LEL [21, 44] was 80 mg/kg/day. The LOAEL [21, 44] was 80 mg/kg/day, the NEL [21, 44] was 20 mg/kg/day and the NOAEL [21, 44] was 20 mg/kg/day.
